Reference: patent publication US12403112B2, “Agent for preventing, ameliorating, or treating periodontal disease” (WAKUNAGA PHARMACEUTICAL CO., LTD., priority 2019, dated 2025)

Experiments:
Assay type in all cases: cell-based
[1] = system: LL-37 gene in human gingival epithelial Ca9-22 cells; experiment: Effect of promoting expression of LL-37 gene (quantitative real-time PCR); conditions: treatment for 24 hours, absence of HKPG, compared to untreated, FIG. 1
Method: (§1) Test solutions for evaluating the biological activities were prepared as follows. In evaluating the biological activities, all test solutions were prepared at the time of use. • (a) Approximately 1 mg of SAC and S1PC (cis:trans=15:85) were each precisely weighed and dissolved in 0.6 mL of purified water (10 mM). This solution was used as a stock solution and diluted appropriately to be subjected to the test. • (b) SAMC was dissolved in a culture medium for cell culture (containing 10% bovine serum albumin, […] penicillin, and 100 μg/mL streptomycin) (1 mM). This solution was used as a stock solution and diluted to be subjected to the test. (2) Cells for Evaluation Test
Test cells (human gingival epithelial Ca9-22 cells) were purchased from the National Institute of Biomedical Innovation, Health and Nutrition. […]
(§2) Using a reverse transcription kit (PrimeScript RT reagent kit with gDNA Eraser, RR047A, TAKARA), degradation of DNA remaining in total RNA and reverse transcription reaction from RNA to complementary DNA (cDNA) were carried out. Next, cDNA derived from the target gene was amplified by quantitative real-time polymerase chain reaction (PCR) using primers specific for LL-37 or hBD3 gene. The relative expression levels of LL-37 and hBD3 genes were calculated using beta-actin as an internal reference gene.

[2] = system: hBD3 gene in human gingival epithelial Ca9-22 cells; experiment: Effect of promoting expression of hBD3 gene (quantitative real-time PCR)
Method: as §1
Test cells (human gingival epithelial Ca9-22 cells) were purchased from the National Institute of Biomedical Innovation, Health and Nutrition. Immediately after purchasing, the culturing was initiated (5% CO2, 37° C.) Subculturing was carried out two or three times per week.
The Ca9-22 cells were prepared to 1×10^5 cells/mL in a 10% serum-containing medium, seeded in a 12-well plate at 1 mL respectively, and cultured for 24-48 hours. Assay was carried out when the percentage of cells in each well reached nearly 100%. In the presence or absence of heat-sterilized Porphyromonas gingivalis (HKPG), a reagent was added and the culturing was continued for 24 hours. After completion of culturing, the culture supernatant was removed and […] was added, followed by treatment at room temperature for 5 minutes. RIPA buffer was collected from each well into tubes and chloroform was added (40 μL/tube), followed by treatment at room temperature for 2-3 minutes. After centrifugation (13,000 g, 5 min, 4° C.), the supernatant was transferred to a new tube and 2-propanol was added thereto (80 μL/tube), followed by treatment at room temperature for 10 minutes. After centrifugation (13,000 g, 10 min, 4° C.), the supernatant was removed, and 75% ethanol was added to the precipitate (200 μL/tube), and further centrifugation (13,000 g, 10 min, 4° C.) was carried out. After centrifugation (13,000 g, 10 min, 4° C.), the supernatant was removed, and the dried precipitate (total RNA) was dissolved in sterile water and cryopreserved at −80° C. until use.
as §2

[3] = system: ICAM-1 protein in human gingival epithelial Ca9-22 cells; experiment: Effect of down-regulating expression of ICAM-1 induced by TNF-α (Western blot); conditions: co-treatment with TNF-α, 24 hours, FIG. 3
Method: Test solutions for evaluating the biological activities were prepared as follows. In evaluating the biological activities, all test solutions were prepared at the time of use. • (a) Approximately 1 mg of SAC and […] (cis:trans=15:85) were each precisely weighed and dissolved in 0.6 mL of purified water (10 mM). This solution was used as a stock solution and diluted appropriately to be subjected to the test. • (b) SAMC was dissolved in a culture medium for cell culture (containing 10% bovine serum albumin, […] penicillin, and 100 μg/mL streptomycin) (1 mM). This solution was used as a stock solution and diluted to be subjected to the test. (2) Cells for Evaluation Test Test cells (human gingival epithelial Ca9-22 cells) were purchased from the National Institute of Biomedical Innovation, Health and Nutrition. Immediately after purchasing, the culturing was initiated (5% CO2, 37° C.) Subculturing was carried out two or three times per week. […] A portion of the above protein supernatant was collected and the total protein concentration was calculated by BCA method. […] After reaction treatment, the proteins were washed with Tris-buffered saline three times, an HRP substrate was added thereto, and the luminescence intensity was detected by a luminoimage analyzer.

[4] = system: IL-6 release from human gingival epithelial Ca9-22 cells; experiment: Effect of reducing release of IL-6 induced by TNF-α (ELISA); conditions: co-treatment with TNF-α, 6 hours, FIGS. 4 and 5
Method: Test solutions for evaluating the biological activities were prepared as follows. In evaluating the biological activities, all test solutions were prepared at the time of use. • (a) Approximately 1 mg of SAC and […] (cis:trans=15:85) were each precisely weighed and dissolved in 0.6 mL of purified water (10 mM). This solution was used as a stock solution and diluted appropriately to be subjected to the test. • (b) SAMC was dissolved in a culture medium for cell culture (containing 10% bovine serum albumin, […] penicillin, and 100 μg/mL streptomycin) (1 mM). This solution was used as a stock solution and diluted to be subjected to the test. (2) Cells for Evaluation Test Test cells (human gingival epithelial Ca9-22 cells) were purchased from the National Institute of Biomedical Innovation, Health and Nutrition. Immediately after purchasing, the culturing was initiated (5% CO2, 37° C.) Subculturing was carried out two or three times per week. […] IL-6 ELISA Ready-SET-Go! Kit was purchased from eBioscience, Inc. to measure the amount of IL-6 produced. […] A horseradish peroxidase (HRP)-labeled secondary antibody and chromogenic substrate were added thereto and then the absorbance was measured by using a plate reader. […] After completion of culturing, the supernatant was collected and the concentration of IL-6 was measured by ELISA.

[5] = 300 μM, presence of 10^7/mL HKPG (heat-sterilized Porphyromonas gingivalis), FIG. 2
[6] = treatment for 24 hours, absence of HKPG

Structure (SMILES) | expression level of LL-37 gene [1] | expression level of hBD3 gene [2, 5] | expression level of hBD3 gene [2, 6] | expression of ICAM-1 protein induced by TNF-α [3] | amount of released IL-6 induced by TNF-α [4]
CC=CSC[C@H](N)C(=O)O [S1PC, S-1-propenylcysteine] | significantly increased | significantly increased | no change | concentration-dependently down-regulated | 
C=CCSC[C@H](N)C(=O)O [SAC, S-allylcysteine] | significantly increased | significantly increased | no change |  | concentration-dependently reduced
C=CCSSCC(N)C(=O)O (stereo not drawn) [SAMC, S-allylmercaptocysteine] |  |  |  |  | concentration-dependently reduced
